From patent publication EP4782466A1, “FUSION PROTEIN FOR INACTIVATING CORONAVIRUS AND USE THEREOF” (priority 2023, dated 2025)

Columns and labels:
[1] = test system: SARS-CoV-2 prototype pseudovirus
[2] = test system: SARS-CoV-2 Alpha pseudovirus
[3] = test system: SARS-CoV-2 Beta pseudovirus
[4] = test system: SARS-CoV-2 Gamma pseudovirus
[5] = test system: SARS-CoV-2 Delta pseudovirus
[6] = test system: SARS-CoV-2 Lambda pseudovirus
[7] = test system: SARS-CoV-2 BA.1 pseudovirus
[8] = test system: SARS-CoV-2 BA.2 pseudovirus
[9] = test system: SARS-CoV-2 BA.2.2 pseudovirus
[10] = test system: SARS-CoV-2 BA.2.9 pseudovirus
[11] = test system: SARS-CoV-2 BA.2.12.1 pseudovirus
[12] = test system: SARS-CoV-2 BA.2.75 pseudovirus
[13] = test system: SARS-CoV-2 BA.3 pseudovirus
[14] = test system: SARS-CoV-2 BA.4.6 pseudovirus
[15] = test system: SARS-CoV-2 BA.5 pseudovirus
[16] = test system: SARS-CoV-2 BF.7 pseudovirus
[17] = test system: SARS-CoV-2 XBB pseudovirus
[18] = test system: SARS-CoV-2 BQ.1 pseudovirus
[19] = test system: coronavirus pseudoviruses such as 2019-nCoV; details: verified in Chinese Patent Application No. CN202180001804.1; cited from earlier work

What does the source list for CC[C@H](C)[C@H](NC(=O)[C@H](C)NC(=O)[C@H](CCC(=O)O)NC(=O)[C@H](CCC(=O)O)NC(=O)[C@H](CC(C)C)NC(=O)[C@H](CCCCN)NC(=O)[C@H](CCCCN)NC(=O)[C@H](CCSC)NC(=O)[C@H](CCC(=O)O)NC(=O)[C@H](Cc1ccc(O)cc1)NC(=O)[C@H](CCC(=O)O)NC(=O)[C@H](CC(C)C)NC(=O)[C@H](CC(=O)O)NC(=O)[C@H](CC(C)C)NC(=O)[C@H](Cc1ccccc1)NC(=O)[C@@H](NC(=O)[C@@H](NC(=O)[C@H](CC(N)=O)NC(=O)[C@@H](NC(=O)[C@H](CCC(N)=O)NC(=O)[C@H](CC(=O)O)NC(=O)[C@H](CC(C)C)NC(=O)[C@@H](N)CO)[C@@H](C)CC)C(C)C)[C@@H](C)O)C(=O)N[C@@H](CCCCN)C(=O)N[C@@H](CCCCN)C(=O)N[C@@H](CC(C)C)C(=O)N[C@@H](CCC(=O)O)C(=O)N[C@@H](CCC(=O)O)C(=O)N[C@@H](CO)C(=O)N[C@@H](Cc1ccc(O)cc1)C(=O)N[C@H](C(=O)N[C@@H](CC(=O)O)C(=O)N[C@@H](CC(C)C)C(=O)N[C@@H](CCCCN)C(=O)N[C@@H](CCC(=O)O)C(=O)N[C@@H](CC(C)C)C(=O)O)[C@@H](C)CC [EK1]?
IC50 [1]: 186 nM; IC50 [2]: 268 nM; IC50 [3]: 257 nM; IC50 [4]: 277 nM; IC50 [5]: 150 nM; IC50 [6]: 995 nM; IC50 [7]: 70.5 nM; IC50 [8]: 297 nM; IC50 [9]: 162 nM; IC50 [10]: 199 nM; IC50 [11]: 342 nM; IC50 [12]: 331 nM; IC50 [13]: 136 nM; IC50 [14]: 473 nM; IC50 [15]: 568 nM; IC50 [16]: 584 nM; IC50 [17]: 233 nM; IC50 [18]: 136 nM; IC50 (SARS-CoV pseudovirus): 841 nM; IC50 (HCoV-NL63 pseudovirus): 1070 nM; IC50 (WIV1 pseudovirus): 2450 nM; IC50 (Rs3367 pseudovirus): 1340 nM

For “SLDQINVTFLDLEYEMKKLEEAIKKLEESYIDLKEL-GSGSG-DPEG4-C(cholesterol) [EK1-chol]”, which “inhibitory activity against coronavirus pseudoviruses” value [19] is on record?
The value was “possess inhibitory activity”.

For “SLDQINVTFLDLEYEMKKLEEAIKKLEESYIDLKEL-GSG-DPEG4-K(palmitic) [EK1-palmitic]”, which “inhibitory activity against coronavirus pseudoviruses” value [19] is on record?
The value was “possess inhibitory activity”.
